Source: PMC11995216, “End-to-End Backbone Cyclization Enhances Passive Permeability of bRo5 Oligomeric Depsipeptides with Nonlinear Size Dependence” (ACS Medicinal Chemistry Letters, 2025)
Several values for one entry are separate records, joined by “and”; a condition that tells them apart may be missing. Equal entries are not always repeated. Where two headings read alike, the source gives them in different places.

Columns and labels:
in vitro = conditions: PAMPA, Papp
[1] = PAMPA, 500 uM
[2] = calculated using Supplement Equation 1, UV detection
PAMPA [3] = conditions: UV detection
PAMPA [4] = conditions: UV detection, initial concentration 500 uM
[5] = UV detection
[6] = initial concentration 500 uM, standard curve, UV detection

Papp at 500 uM (in vitro): 1.81 ± 0.22 ×10⁻⁶ cm/s
Δ % diffusion [1]: ↑4%
%T ([2]; Well 1 / %T, Well 1): 0.33% and 0.28%
%T ([2]; Well 2 / %T, Well 2): 0.24% and 0.25%
%T ([2]; Well 3 / %T, Well 3): 0.27%
%T ([2]; Well 4 / %T, Well 4): 0.27% and 0.29%
%T ([2]; Well 5 / %T, Well 5): 0.24% and 0.29%
Papp (PAMPA [3]; Papp (x 10^-6 cm/s) / experiment 1): 2.29 ×10⁻⁶ cm/s
Papp (PAMPA [3]; Papp (x 10^-6 cm/s) / experiment 2): 1.55 ×10⁻⁶ cm/s
Papp (PAMPA [3]; Papp (x 10^-6 cm/s) / experiment 3): 1.77 ×10⁻⁶ cm/s
Papp (PAMPA [3]; Papp (x 10^-6 cm/s) / experiment 4): 1.78 ×10⁻⁶ cm/s
Papp (PAMPA [3]; Papp (x 10^-6 cm/s) / experiment 5): 1.56 ×10⁻⁶ cm/s
Papp (PAMPA [3]; Papp (x 10^-6 cm/s) / experiment 6): 1.9 ×10⁻⁶ cm/s
Papp (PAMPA [3]; Papp (x 10^-6 cm/s) / experiment 7): 1.61 ×10⁻⁶ cm/s
Papp (PAMPA [3]; Papp (x 10^-6 cm/s) / experiment 8): 1.79 ×10⁻⁶ cm/s
Papp (PAMPA [3]; Papp (x 10^-6 cm/s) / experiment 9): 1.89 ×10⁻⁶ cm/s
Papp (PAMPA [3]; Papp (x 10^-6 cm/s) / experiment 10): 1.94 ×10⁻⁶ cm/s
% recovery ([5]; Well 1 / %R, Well 1): 83% and 93%
% recovery ([5]; Well 2 / %R, Well 2): 93% and 94%
% recovery ([5]; Well 3 / %R, Well 3): 85% and 86%
% recovery ([5]; Well 4 / %R, Well 4): 86% and 90%
% recovery ([5]; Well 5 / %R, Well 5): 90% and 93%
Compound: CCCCC[C@H](OC(=O)[C@@H](C)N(C)C(=O)[C@H](CCCCC)OC(=O)[C@@H](C)N(C)C(=O)[C@H](CCCCC)OC(=O)[C@@H](C)N(C)C(=O)[C@H](CCCCC)OC(=O)[C@@H](C)N(C)C(=O)[C@H](CCCCC)OC(=O)[C@@H](C)N(C)C(=O)OC(C)(C)C)C(=O)OCc1ccccc1 [Compound L1.5]
Acceptor Concentration (PAMPA [4]; Acceptor Concentration (uM) / experiment 1): 50.2 µM
Acceptor Concentration (PAMPA [4]; Acceptor Concentration (uM) / experiment 2): 38.4 µM
Acceptor Concentration (PAMPA [4]; Acceptor Concentration (uM) / experiment 3): 40.2 µM
Acceptor Concentration (PAMPA [4]; Acceptor Concentration (uM) / experiment 4): 40.8 µM
Acceptor Concentration (PAMPA [4]; Acceptor Concentration (uM) / experiment 5): 37.5 µM
Acceptor Concentration (PAMPA [4]; Acceptor Concentration (uM) / experiment 6): 47.1 µM
Acceptor Concentration (PAMPA [4]; Acceptor Concentration (uM) / experiment 7): 40.3 µM
Acceptor Concentration (PAMPA [4]; Acceptor Concentration (uM) / experiment 8): 41 µM
Acceptor Concentration (PAMPA [4]; Acceptor Concentration (uM) / experiment 9): 45.3 µM
Acceptor Concentration (PAMPA [4]; Acceptor Concentration (uM) / experiment 10): 48 µM
donor concentration after incubation ([6]; Well 1 / [donor], Well 1): 366 µM and 419 µM
donor concentration after incubation ([6]; Well 2 / [donor], Well 2): 425 µM and 429 µM
donor concentration after incubation ([6]; Well 3 / [donor], Well 3): 387 µM and 389 µM
donor concentration after incubation ([6]; Well 4 / [donor], Well 4): 390 µM and 406 µM
donor concentration after incubation ([6]; Well 5 / [donor], Well 5): 412 µM and 419 µM
